{
  "source": "patent US7767666B2",
  "about": "“Butyl and butynyl benzyl amine compounds” (Janssen Pharmaceutica NV, priority 2006, dated 2010)",
  "key": {"human H3 receptor [1]": {"biological_target": "T1, human H3 receptor (Homo sapiens, UniProt Q9Y5N1)", "T1 construct": "expressed in transfected cells", "T1 sequence (Q9Y5N1 whole entry)": "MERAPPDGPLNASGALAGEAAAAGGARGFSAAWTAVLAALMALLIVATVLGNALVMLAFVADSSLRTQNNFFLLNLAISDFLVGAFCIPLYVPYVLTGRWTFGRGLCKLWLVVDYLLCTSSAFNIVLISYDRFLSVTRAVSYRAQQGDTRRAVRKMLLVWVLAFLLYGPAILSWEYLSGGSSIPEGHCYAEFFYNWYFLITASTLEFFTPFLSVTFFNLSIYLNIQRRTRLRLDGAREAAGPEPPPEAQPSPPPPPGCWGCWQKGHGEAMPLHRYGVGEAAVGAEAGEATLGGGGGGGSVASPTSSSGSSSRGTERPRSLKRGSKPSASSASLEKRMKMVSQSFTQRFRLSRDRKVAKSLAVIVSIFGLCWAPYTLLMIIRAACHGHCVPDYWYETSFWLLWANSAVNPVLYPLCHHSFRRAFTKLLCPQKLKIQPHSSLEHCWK", "assay": "Cyclic AMP accumulation (β-galactosidase reporter)", "assay_type": "cell-based", "conditions": "SK-N-MC cells expressing human H3 receptor and reporter; histamine agonist, forskolin 5 μM; Schild regression of pEC50 values", "procedure": "Sublines of SK—N-MC cells were created that expressed a reporter construct and the human H3 receptor. The reporter gene (β-galactosidase) is under the control of multiple cyclic AMP responsive elements. In 96-well plates, histamine was added directly to the cell media followed 5 min later by an addition of forskolin (5 μM final concentration). When appropriate, antagonists were added 10 min prior to agonist addition. After a 6-h incubation at 37° C., the media was aspirated and the cells washed with 200 μL of phosphate-buffered saline followed by a second aspiration. Cells were lysed with 25 μL 0.1× assay buffer (10 mM Na-phosphate, pH 8, 0.2 mM MgSO4, 0.01 mM MnCl2) and incubated at rt for 10 min. […] Color was developed using 25 μL of 1 mg/mL substrate solution (chlorophenolred β-D galactopyranoside; Roche Molecular Biochemicals, Indianapolis, Ind.)."}, "Rat SERT": {"biological_target": "T2, Rat SERT (Rattus norvegicus, UniProt P31652)", "T2 construct": "A rat brain without cerebellum (Zivic Laboratories, Inc.—Pittsburgh, Pa.) was homogenized; tissue Zivic Laboratories, Inc; host or cells: rat brain without cerebellum, membrane preparation", "T2 sequence (P31652 whole entry)": "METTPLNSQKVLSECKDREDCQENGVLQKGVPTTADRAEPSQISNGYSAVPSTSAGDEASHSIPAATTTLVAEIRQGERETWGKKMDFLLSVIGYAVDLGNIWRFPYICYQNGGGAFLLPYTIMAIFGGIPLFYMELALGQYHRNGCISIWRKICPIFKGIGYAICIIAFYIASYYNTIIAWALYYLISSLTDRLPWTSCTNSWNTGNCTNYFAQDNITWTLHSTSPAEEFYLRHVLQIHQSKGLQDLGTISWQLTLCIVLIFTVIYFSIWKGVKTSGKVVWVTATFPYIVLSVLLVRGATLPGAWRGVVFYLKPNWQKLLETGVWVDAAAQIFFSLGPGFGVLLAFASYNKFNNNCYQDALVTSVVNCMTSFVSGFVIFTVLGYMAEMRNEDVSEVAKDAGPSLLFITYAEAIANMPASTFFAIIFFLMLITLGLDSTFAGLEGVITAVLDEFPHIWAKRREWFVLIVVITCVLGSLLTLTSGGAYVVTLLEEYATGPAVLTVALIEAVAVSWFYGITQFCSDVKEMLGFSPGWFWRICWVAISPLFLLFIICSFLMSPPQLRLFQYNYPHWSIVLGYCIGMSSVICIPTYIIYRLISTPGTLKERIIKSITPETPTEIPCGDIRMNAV", "assay": "Rat brain SERT [3H]-citalopram binding", "conditions": "rat brain membranes, 0.6 nM [3H]-Citalopram, 60 min at 25° C.", "procedure": "The supernatant was removed and re-centrifuged at 15,000 rpm for 30 min. […] Membranes were incubated with 0.6 nM [^3H]-Citalopram plus/minus test compounds for 60 min at 25° C. and harvested by rapid filtration over GF/C glass fiber filters (pretreated with 0.3% polyethylenimine) followed by four washes with ice-cold buffer."}, "human SERT": {"biological_target": "T3, human SERT (Homo sapiens, UniProt P31645)", "T3 construct": "expressed in transfected cells; host or cells: HEK293 membranes", "T3 sequence (P31645 whole entry)": "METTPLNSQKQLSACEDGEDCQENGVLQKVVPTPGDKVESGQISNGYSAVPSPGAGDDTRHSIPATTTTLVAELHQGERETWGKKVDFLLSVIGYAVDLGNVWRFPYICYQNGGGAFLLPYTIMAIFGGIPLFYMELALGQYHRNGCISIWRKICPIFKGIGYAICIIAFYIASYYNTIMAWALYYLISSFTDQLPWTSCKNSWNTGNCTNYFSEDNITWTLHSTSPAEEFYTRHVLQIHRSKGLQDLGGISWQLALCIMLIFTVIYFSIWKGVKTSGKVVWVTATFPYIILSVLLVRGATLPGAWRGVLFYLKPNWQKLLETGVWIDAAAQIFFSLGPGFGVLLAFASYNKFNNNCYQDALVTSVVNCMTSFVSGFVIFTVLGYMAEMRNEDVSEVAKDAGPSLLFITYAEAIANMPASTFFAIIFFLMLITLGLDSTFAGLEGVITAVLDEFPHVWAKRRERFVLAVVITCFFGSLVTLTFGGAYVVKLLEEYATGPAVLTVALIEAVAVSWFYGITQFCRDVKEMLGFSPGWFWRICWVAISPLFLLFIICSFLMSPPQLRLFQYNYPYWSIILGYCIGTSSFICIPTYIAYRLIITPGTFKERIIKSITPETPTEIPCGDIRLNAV", "assay": "Human SERT 3H-citalopram binding", "conditions": "HEK293 membranes expressing the human SERT, rt 1 h", "procedure": "Homogenized HEK293 (Human Embryonic Kidney) membranes expressing the human SERT were incubated with ^3H-citalopram (SERT) at rt for 1 h in 50 mM Tris, 120 mM NaCl, 5 mM KCl (pH 7.4). […] The membranes were washed and the radioactivity was counted as above."}, "human H3 receptor [2]": {"biological_target": "T1, human H3 receptor", "assay": "H3 receptor binding", "conditions": "cloned human H3 receptor stably expressed in SK-N-MC cells"}},
  "data": [
    {"smiles": "CNCc1cc(C#CCCN2CCOCC2)ccc1Oc1cccc(Cl)c1", "note": "[Example 12, [2-(3-Chloro-phenoxy)-5-(4-morpholin-4-yl-but-1-ynyl)-benzyl]-methyl-amine]", "values": [
      {"measurement": "pA2", "setting": "human H3 receptor [1]", "value": 8.58},
      {"measurement": "Ki", "setting": "Rat SERT", "value": 3, "unit": "nM"},
      {"measurement": "Ki", "setting": "human SERT", "value": 7.3, "unit": "nM"},
      {"measurement": "Ki", "setting": "human H3 receptor [2]", "value": 3, "unit": "nM"}
    ]},
    {"smiles": "CNCc1cc(C#CCCN2CCOCC2)ccc1Oc1ccc(C(F)(F)F)cc1", "note": "[Example 7, Methyl-[5-(4-morpholin-4-yl-but-1-ynyl)-2-(4-trifluoromethyl-phenoxy)-benzyl]-amine]", "values": [
      {"measurement": "pA2", "setting": "human H3 receptor [1]", "value": 7.90},
      {"measurement": "Ki", "setting": "Rat SERT", "value": 2, "unit": "nM"},
      {"measurement": "Ki", "setting": "human SERT", "value": 2.7, "unit": "nM"},
      {"measurement": "Ki", "setting": "human H3 receptor [2]", "value": 7.3, "unit": "nM"}
    ]},
    {"smiles": "CNCc1cc(C#CCCN2CCC(F)CC2)ccc1Oc1ccc(SC)cc1", "note": "[Example 11, [5-[4-(4-Fluoro-piperidin-1-yl)-but-1-ynyl]-2-(4-methylsulfanyl-phenoxy)-benzyl]-methyl-amine]", "values": [
      {"measurement": "pA2", "setting": "human H3 receptor [1]", "value": 8.12},
      {"measurement": "Ki", "setting": "Rat SERT", "value": 0.6, "unit": "nM"},
      {"measurement": "Ki", "setting": "human SERT", "value": 0.9, "unit": "nM"},
      {"measurement": "Ki", "setting": "human H3 receptor [2]", "value": 6, "unit": "nM"}
    ]}
  ]
}
